Results: patent US9242929B2, “Compounds as diacylglycerol acyltransferase inhibitors” (GlaxoSmithKline Intellectual Property (No.2) Limited, priority 2011, dated 2016)

Target: T1, Human DGAT1 (Homo sapiens, UniProt O75907)
T1 construct: made in house; host or cells: Sf9 insect cells (baculovirus), microsomes
T1 sequence (O75907 1-488): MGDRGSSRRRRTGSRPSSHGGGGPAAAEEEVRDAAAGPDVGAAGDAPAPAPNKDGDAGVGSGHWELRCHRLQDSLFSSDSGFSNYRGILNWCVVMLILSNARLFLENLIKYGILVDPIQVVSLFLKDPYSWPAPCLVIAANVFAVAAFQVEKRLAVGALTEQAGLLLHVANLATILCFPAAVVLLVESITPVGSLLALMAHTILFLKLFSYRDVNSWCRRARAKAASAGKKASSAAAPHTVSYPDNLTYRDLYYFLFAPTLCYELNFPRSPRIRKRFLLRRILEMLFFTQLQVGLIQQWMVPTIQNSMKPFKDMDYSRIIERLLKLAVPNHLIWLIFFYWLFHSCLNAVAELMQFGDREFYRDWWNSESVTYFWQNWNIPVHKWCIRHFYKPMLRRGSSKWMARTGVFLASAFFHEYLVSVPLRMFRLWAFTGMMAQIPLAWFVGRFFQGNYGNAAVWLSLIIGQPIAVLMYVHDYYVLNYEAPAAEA
Test: human DGAT1 fluorescence (CPM) assay, inhibition of CoA product formation
Format: biochemical
Details: human DGAT1 fluorescene (CPM) assay; microsomes from Sf9 insect cells; read-out: hDGAT IC50
Method: Human DGAT1 was expressed in Sf9 insect cells using a baculovirus expression system. Microsomes were prepared and used as enzyme for in vitro inhibition testing in either of two formats measuring production of coenzyme A or tridecanoylglycerol product, respectively. All steps were performed at 21-23° C. All data for DGAT1 inhibition by test compounds were collected under conditions where product formation was linear with reaction time.
An equal volume (10 uL) of 3× enzyme in buffer was added and the components incubated for 30 minutes pre-reaction incubation to allow enzyme and test compounds to attain binding equilibrium. […] Some assays were performed with inclusion of didecanoylglycerol in the pre-reaction incubation of test compound and enzyme. DGAT reactions (30 uL) were initiated upon addition of 10 uL of 3× substrate solution. Final reaction conditions consisted of 20 mM HEPES pH 7.5, 2 mM MgCl2, 1 mM CHAPS, 50 uM didecanoylglycerol, 3 uM decanoyl-CoA, 1 ug/mL microsomal protein, and 1% DMSO. Following a 60 minute reaction incubation, reactions were stopped and CoA product derivatized with 30 uL of buffer containing 10 uM {4-[4-(4-amino-7,7-dimethyl-7H-pyrimido[4,5-b][1,4]oxazin-6-yl)phenyl]cyclohexyl}acetic acid and 50 uM 7-diethylamino-3-(4′-maleimidylphenyl)-4-methylcoumarin (CPM). […] IC50s were fitted using GraphPad Prism to a sigmoidal dose response.

Row | SMILES | IC50
1 | O=C(O)CC1(O)CCc2cc(-c3ccc(NC(=O)Nc4cccc(C(F)(F)F)c4)cc3)ccc2C1 (centres unmarked) [Example 40, 2-{2-hydroxy-6-[4-({[3-(trifluoromethyl)phenyl]carbamoyl}amino)phenyl]-1,2,3,4-tetrahydronaphthalen-2-yl}acetic acid] | 0.357 µM
2 | O=C(O)CC1(O)CCc2cc(-c3ccc(NC(=O)Nc4cccc(C(F)(F)F)c4)cc3)ccc2C1=O (centres unmarked) [Example 185, 2-{2-hydroxy-1-oxo-6-[4-({[3-(trifluoromethyl)phenyl]carbamoyl}amino)phenyl]-1,2,3,4-tetrahydronaphthalen-2-yl}acetic acid] | 0.032 µM
